Results from patent US5389621A, “Method of enhancing the anticoagulant effects of aspirin using salicylamide” (University of Medicine and Dentistry of New Jersey, priority 1994, dated 1995).
Entries after “also recorded” stand apart in the source; their conditions may differ. Blank lines part the entries; values can stand above or below the compound they belong to.

What was measured:
Format in all cases: in vivo, male Sprague-Dawley rats
[1] = Plasma kinetics of total 14C after oral 14C-aspirin alone or with salicylamide
Experimental: (§1) Male adult Sprague-Dawley rats (300-325 gm) obtained from Charles River Breeding Laboratory, N. Wilmington, Mass. were quarantined for one week. All animals were identified by ear punching. Food and water were provided ad libitum. The animals were maintained on rodent lab chow diet in a controlled environment with 50% humidity and 12 hour light/dark cycle.
(§2) Two dose combinations were employed. The low dose was 10 and/or 3 mg/kg of ASA and/or SAM, respectively, while the high dose was double the low dose. These doses were approximately equal (w/w) to that in commercially available combinations, e.g., BC® formula, when administered to humans.
(§3) Rats were divided into 2 groups; the first group consisted of 30 rats which were assigned to 5 subgroups, 6 rats each, according to the following treatment scheme:
(§4) The second group consisted of 4 subgroups and were administered double the dose received by the first group (with the exception of subgroup III).
The rats were fasted overnight (~18 hr.) before administration of the treatments and were allowed water ad libitum. The drug(s) to be given were prepared fresh in the morning of the study, dissolved in 2.5 ml of deionized water and gavaged to rats.
The specific activity of ASA was 739 and 369 dpm/μg for the low and high dose treatments, respectively.
(§5) The samples were collected by heparinized plastic syringes and transferred to polyethylene test tubes. The samples, ~300 μl each, were rapidly centrifuged at 1800×g for 15 minutes at 4° C.
(§6) The terminal elimination rate constant (ke) was estimated by linear regression of the terminal β phase of the plasma concentration vs. time curves. The area under the curve (AUC.infin.) was calculated by using the trapezoidal method from zero to the last measured plasma concentration. The half-life of elimination (t1/2β) was obtained by the equation t1/2β =0.693/ke.
(§7) Total body clearance (ClT) was estimated by the equation ClT =Dose/AUC assuming a complete absorption of ASA and SAM (Iwamoto et al., 1982; Iwamoto et al., 1983). The apparent volume of distribution Vd was calculated from the formula, Vd =ClT /ke.

[2] = Tissue distribution of 14C radioactivity after 14C-salicylamide
Experimental: All animals were identified by ear punching. Food and water were provided ad libitum.
(§8) Forty-eight rats were divided into two groups.
Each group consisted of 24 rats and was further divided into 4 subgroups, 6 rats each, according to the following scheme:
The rats were fasted overnight. The drug(s) were prepared fresh, dissolved in 2.5 ml of deionized water and administered orally by gavage needle. The rats were allowed water ad libitum before and after the oral administration.
The different treatments were given according to the previous scheme and each rat received an amount of radioactivity equal to […] in the case of radioactive aspirin and 10 μCu in the case of radioactive salicylamide. For the low and high dose ASA treatments 3696 and 1848 dpm ^14 C-ASA/μg total ASA were used respectively. For SAM, 24.4 and 12.2 dpm ^14 C-SAM/ng total SAM were utilized for low and high dose treatments, respectively.
(§9) The rats were anesthetized by light diethyl ether inhalation.
The rest of the red blood cells were washed twice by adding 2 ml of physiological saline and were resuspended after each addition. The red blood cells were centrifuged at 3000 rpm (1800×g) for 10 minutes and 300 μl were pipetted in a scintillation vial for measurement of ^14 C radioactivity.
After collecting the blood sample, the rats were sacrificed immediately by a diethyl ether overdose. The following tissues were collected: liver, lung, kidney, heart, spleen, perinephric fat, brain, upper small intestine, stomach, pancreas, bone (femur and tibia), testis, skin and skeletal muscle. A sample of bone marrow was also collected (approximately20 mg).
300 mg tissue samples were placed in scintillation vials and 300 μl of 70% perchloric acid and 600 μl of 30% hydrogen peroxide were added to each vial and also to the vials containing the washed red blood cells aliquots. The vials were incubated at 75° C. for 1 hour in a shaking water bath and were tightly capped to prevent any loss of radioactivity by evaporation.
The vials were left to cool to room temperature for 15 minutes before 10 ml Aquasol-2 scintillation fluid was added to each vial. The total radioactivity was counted in a Beckman model 7500 LS spectrophotometer.

[3] = Plasma kinetics of total 14C after oral 14C-salicylamide alone or with aspirin; conditions: for AUC.infin. of 14C: mean ± SE, n=6
Experimental: as §1, §2, §3, §4
The rats were fasted overnight (~18 hr.) before administration of the treatments and were allowed water ad libitum. The drug(s) to be given were prepared fresh in the morning of the study, dissolved in 2.5 ml of deionized water and gavaged to rats. […]
as §5, §6, §7

[4] = Tightly protein-bound 14C radioactivity after 14C-salicylamide; conditions: 1.5 hr
Experimental: as §8, §9
The plasma tightly protein-bound activity was measured by adding 100 μl of 10% trichloroacetic acid (TCA) to 100 μl of plasma in microcentrifuge tubes and vortexing the contents for 1 minute followed by centrifugation at 1800×g for 10 minutes. The supernatant was decanted and the tubes with the pellets in them were placed in scintillation vials each containing 15 ml of Aquasol-2 scintillation fluid. […] The radioactivity in the scintillation vials was counted in Beckman LS counter.
In the case of plasma analysis, 100 μl samples were used and the remainder of the procedure was the same as described above. The pellets were not dissolved but instead directly poured in a tube containing 15 ml of the scintillation fluid and the radioactivity was measured in the Beckman LS counter.

[5] = 1.5 hr, 14C-SAM 3 mg/kg, alone or with ASA 10 mg/kg
[6] = 1.5 hr, 14C-SAM 6 mg/kg, alone or with ASA 20 mg/kg
[7] = oral 14C-SAM 3 mg/kg, alone or with ASA 10 mg/kg
[8] = oral 14C-SAM 6 mg/kg, alone or with ASA 20 mg/kg

- Duration of the SAM effect on plasma 14C ([1]; following coadministration with 14C-ASA): approximately 4 hours
- Increase of Cmax of total 14C by SAM ([1]; high dose 14C-ASA coadministration): ~25%
- Effect of SAM on 14C-ASA absorption half-life ([1]; rat, in vivo): no effect
SMILES: NC(=O)c1ccccc1O [SAM, Salicylamide]
- Effect on AUC.infin. of 14C ([1]; after 14C-ASA): further increased, albeit not significantly
- Effect on total body clearance (ClT) of 14C ([1]; after 14C-ASA): tended to decrease the ClT after the high dose combination
- Effect of SAM coadministration on Cmax / plasma level of total 14C ([1]; with 14C-ASA): enhanced maximum plasma concentration (Cmax) of total ^14 C dose-dependently; also recorded: dose-dependently increases the plasma level of total ^14 C radioactivity

- Organs with the highest 14C concentration ([2]; 14C-SAM alone or with ASA, low or high dose): kidney followed by the stomach
- 14C radioactivity in RBCs [2, 5]: 103 ± 9 ngm/gm tissu
- 14C radioactivity in blood [2, 5]: 146 ± 20 ngm/gm tissu
- 14C radioactivity in bone [2, 5]: 60 ± 7 ngm/gm tissu
- 14C radioactivity in bone marrow [2, 5]: 14 ± 2 ngm/50 mg bone marrow
- 14C radioactivity in brain [2, 5]: 27 ± 5 ngm/gm tissu
- 14C radioactivity in fat [2, 5]: 41 ± 8 ngm/gm tissu
- 14C radioactivity in heart [2, 5]: 44 ± 5 ngm/gm tissu
- 14C radioactivity in kidney [2, 5]: 665 ± 152 ngm/gm tissu
- 14C radioactivity in liver [2, 5]: 100 ± 12 ngm/gm tissu
- 14C radioactivity in lung [2, 5]: 91 ± 11 ngm/gm tissu
- 14C radioactivity in muscle [2, 5]: 56 ± 7 ngm/gm tissu
- 14C radioactivity in pancreas [2, 5]: 93 ± 9 ngm/gm tissu
- 14C radioactivity in plasma [2, 5]: 147 ± 24 ngm/gm tissu
- 14C radioactivity in skin [2, 5]: 107 ± 10 ngm/gm tissu
- 14C radioactivity in spleen [2, 5]: 83 ± 20 ngm/gm tissu
- 14C radioactivity in stomach [2, 5]: 550 ± 154 ngm/gm tissu
- 14C radioactivity in testis (printed TESUIS) [2, 5]: 63 ± 7 ngm/gm tissu
- 14C radioactivity in upper small intestine [2, 5]: 130 ± 27 ngm/gm tissu
- 14C radioactivity in washed RBCs [2, 5]: 77 ± 10 ngm/gm tissu
- 14C radioactivity in RBCs [2, 6]: 118 ± 22 ngm/gm tissu
- 14C radioactivity in blood [2, 6]: 198 ± 32 ngm/gm tissu
- 14C radioactivity in bone [2, 6]: 153 ± 38 ngm/gm tissu
- 14C radioactivity in bone marrow [2, 6]: 29 ± 17 ngm/50 mg bone marrow
- 14C radioactivity in brain [2, 6]: 33 ± 1 ngm/gm tissu
- 14C radioactivity in fat [2, 6]: 130 ± 14 ngm/gm tissu
- 14C radioactivity in heart [2, 6]: 106 ± 10 ngm/gm tissu
- 14C radioactivity in kidney [2, 6]: 1358 ± 441 ngm/gm tissu
- 14C radioactivity in liver [2, 6]: 136 ± 12 ngm/gm tissu
- 14C radioactivity in lung [2, 6]: 218 ± 12 ngm/gm tissu
- 14C radioactivity in muscle [2, 6]: 78 ± 3 ngm/gm tissu
- 14C radioactivity in pancreas [2, 6]: 147 ± 9 ngm/gm tissu
- 14C radioactivity in plasma [2, 6]: 237 ± 49 ngm/gm tissu
- 14C radioactivity in skin [2, 6]: 240 ± 11 ngm/gm tissu
- 14C radioactivity in spleen [2, 6]: 200 ± 26 ngm/gm tissu
- 14C radioactivity in stomach [2, 6]: 832 ± 217 ngm/gm tissu
- 14C radioactivity in testis [2, 6]: 155 ± 17 ngm/gm tissu
- 14C radioactivity in upper small intestine [2, 6]: 268 ± 34 ngm/gm tissu
- 14C radioactivity in washed RBCs [2, 6]: 92 ± 12 ngm/gm tissu
- C1T total body clearance of 14C [3, 7]: 543.7 ± 89.5 mL/h
- Cmax of 14C [3, 7]: 1800 ± 300 ng/mL
- T1/2β elimination half-life of 14C [3, 7]: 1.1 ± 0.24 h
- Vd apparent volume of distribution of 14C [3, 7]: 975 ± 152 mL
- AUC.infin. of 14C [3, 7]: 1.9 ± 0.4 μ · hr/ml
- C1T total body clearance of 14C [3, 8]: 501.1 ± 64.9 mL/h
- Cmax of 14C [3, 8]: 3700 ± 500 ng/mL
- T1/2β elimination half-life of 14C [3, 8]: 1.1 ± 0.1 h
- Vd apparent volume of distribution of 14C [3, 8]: 824 ± 156 mL
- AUC.infin. of 14C [3, 8]: 3.9 ± 0.5 μ · hr/ml
- Tightly protein-bound 14C in heart [4, 7]: 20.6 ± 1.7 ng ^14 C/gm tissue
- Tightly protein-bound 14C in kidney [4, 7]: 669.0 ± 45.1 ng ^14 C/gm tissue
- Tightly protein-bound 14C in liver [4, 7]: 24.2 ± 4.0 ng ^14 C/gm tissue
- Tightly protein-bound 14C in lung [4, 7]: 43.1 ± 6.1 ng ^14 C/gm tissue
- Tightly protein-bound 14C in plasma [4, 7]: 57.8 ± 3.0 ng ^14 C/ml plasma
- Tightly protein-bound 14C in heart [4, 8]: 87.7 ± 11.0 ng ^14 C/gm tissue
- Tightly protein-bound 14C in kidney [4, 8]: 1104.5 ± 212.6 ng ^14 C/gm tissue
- Tightly protein-bound 14C in liver [4, 8]: 72.6 ± 10.7 ng ^14 C/gm tissue
- Tightly protein-bound 14C in lung [4, 8]: 134.8 ± 20.7 ng ^14 C/gm tissue
- Tightly protein-bound 14C in plasma [4, 8]: 154.6 ± 29.8 ng ^14 C/ml plasma
SMILES: N[14C](=O)c1ccccc1O [^14 C-SAM]
